Earlier results on one molecule are cited in patent publication US20230201309A1, “COMPOSITIONS FOR THE TREATMENT OF A RESPIRATORY CONDITION” (VECTURA LIMITED, priority 2020, published 2023).

SMILES strings stand for the structures.

The data set deals with COVID-19.

For the molecule `CCN(CCO)CCCC(C)Nc1ccnc2cc(Cl)ccc12` (centres unmarked) [hydroxychloroquine sulphate], the Hospital mortality (hospitalised COVID-19 patients, hydroxychloroquine sulphate monotherapy plus supportive care, total dose 2400 mg, 804/4,542 patients) was 17.7%. Where the note is “multivariate analysis, 95% CI 0.617-0.758”, the “mortality, adjusted hazard ratio (aHR) vs no-hydroxychloroquine sulphate group” value is given as 0.684.
